According to paper PMC5711939, “The rumen microbiome: an underexplored resource for novel antimicrobial discovery” (NPJ Biofilms and Microbiomes, 2017):
Converted amounts (≈) assume the structure as drawn. Read-outs that look alike come from different tables or passages of the source. Ends that are not written are not given here.

Assays:
[1] = tested on: C. coli
Protocol: (§1) Peptides dissolved in sterile distilled water and comparator antibiotics dissolved in the appropriate solvents[38] were added to sterile U-bottom polypropylene 96-well microplates at desired concentrations.

[2] = tested on: E. coli K12; assay: MIC, broth microdilution; type: cell-based, Escherichia coli; conditions: strain K12, cation adjusted MHB, 18–24 h
Protocol: as §1

[3] = tested on: List. monocytogenes NCTC 11994; assay: microbe, parasite or virus in culture
Protocol: as §1

[4] = tested on: C. jejuni; assay: microbe, parasite or virus in culture
Protocol: as §1

[5] = tested on: Ent. faecalis JH2-2; assay: microbe, parasite or virus in culture
Protocol: as §1

[6] = tested on: Sal. typhimurium SL1344; assay: microbe, parasite or virus in culture
Protocol: as §1

[7] = tested on: P. aeruginosa H1001; assay: SPOT peptide library screen (luminescence); type: cell-based, Pseudomonas aeruginosa; design: unit not given here; conditions: 75% reduction of luminescence vs untreated controls; active IC75≤0.25, semi-active 0.25<IC75≤0.50, inactive IC75>0.5
Source text: (§2) The peptides in the created peptide library were synthesized based on the SPOT technique and pure peptides (≥95% purity) were synthesized on resin using solid phase Fmoc peptide chemistry.[16] The 135 peptides in the peptide library were screened for antimicrobial activity using both luminescent (Pseudomonas aeruginosa strain H1001)[34] and non-luminescent (epidemic methicillin resistant S. aureus EMRSA-15, Sal. typhimurium and E. coli K12) bacterial strains. Activity against non-luminescent bacteria strains was assessed by fluorescence readings (excitation/emission spectra of 560/590 nm) after the addition of resazurin dye (100 µm final concentration). The results from the screen were analysed using the MATLAB extension Gait-CAD as previously described.[35] Concentration values with a 75% reduction of luminescence or fluorescence (IC75) in relation to untreated controls were computed.

[8] = tested on: Sal. typhimurium; assay: SPOT peptide library screen (resazurin fluorescence); type: cell-based, Salmonella enterica serovar Typhimurium; design: unit not given here; conditions: 75% reduction of fluorescence vs untreated controls; active IC75≤0.25, semi-active 0.25<IC75≤0.50, inactive IC75>0.5
Source text: as §2

[9] = tested on: EMRSA-15; assay: as above; type: cell-based, Staphylococcus aureus; design: unit not given here; conditions: 75% reduction of fluorescence vs untreated controls; active IC75≤0.25, semi-active 0.25<IC75≤0.50, inactive IC75>0.5
Source text: as §2

[10] = tested on: E. coli K12; assay: as above; type: cell-based, Escherichia coli; design: unit not given here; conditions: 75% reduction of fluorescence vs untreated controls; active IC75≤0.25, semi-active 0.25<IC75≤0.50, inactive IC75>0.5
Source text: as §2

[11] = tested on: S. aureus; assay: microbe, parasite or virus in culture; conditions: Staphylococcus aureus
Protocol: as §1

[12] = tested on: S. aureus MRSA ATCC 33591; assay: Neutropenic mouse MRSA thigh infection model; type: in vivo, Staphylococcus aureus; conditions: neutropenic male ICR mice; 10 mg/kg IV administered twice; significant (P < 0.001)
Protocol: In the thigh infection model, using neutropenic mice,[25] groups of five male ICR mice weighing 22 ± 2 g were inoculated intramuscularly (IM) with S. aureus MRSA, ATCC 33591 (1.57 × 10^5 CFU/mouse (0.1 ml/thigh)) in the right thigh. Lynronne-1, Lynronne-2 and Lynronne-3 at 10 mg/kg were intravenously (IV) administered once 2 h post infection or twice 2 and 8 h post-infection. The reference substance, vancomycin, was also intravenously injected 2 and 8 h post-infection at 10 and 30 mg/kg. Test animals were sacrificed 26 h after inoculation and the infected thighs were excised and the bacterial burden (CFU/gram) was determined.

[13] = tested on: HUVEC and HepG2 cells; conditions: HUVEC and HepG2 cells (cell line not given)
Protocol: Cytotoxic activity of the identified peptides was determined using HUVEC and HEPG2 cells as described previously.[41],[42] […] Significant responses were defined when observed cell growth was ≤50% and tube length was ≤70% using the proliferation and tube formation assays respectively. Permeabilization of eukaryotic membrane by Lynronne-1, Lynronne-2 and Lynronne-3 was also investigated using HepG2 cells as described previously.[43]

[14] = tested on: E. coli K12; assay: Time kill kinetics; type: cell-based, Escherichia coli; conditions: at 3 h
Protocol: Assessment of the bactericidal activity of peptides and comparator antibiotics was performed as previously described[39] using exponential-phase cultures of pathogens grown in MHB ([…]). Peptides were added at concentrations 3 times their MIC values. Experiments were performed in quadruplicates, and CFU/ml was calculated at different time points after over overnight incubation.

[15] = tested on: P. aeruginosa (CF); assay: microbe, parasite or virus in culture; conditions: Pseudomonas aeruginosa, cation adjusted MHB, 18–24 h
Protocol: as §1

[16] = tested on: K. pneumoniae; assay: microbe, parasite or virus in culture; conditions: Klebsiella pneumoniae, cation adjusted MHB, 18–24 h
Protocol: as §1

[17] = tested on: A. baumanii; assay: microbe, parasite or virus in culture; conditions: Acinetobacter baumannii, strain Q12-0867; Sensitive; cation adjusted MHB, 18–24 h
Protocol: as §1

[18] = Escherichia coli, read-out: MIC
[19] = Listeria monocytogenes, NCTC11994
[20] = Salmonella enterica, TYPHIMURIUM

Molecule VLHTGYRKFLHRSKRFFHLR-NH2 [P4] has an MIC [1] greater than 128 µg/mL, an MIC [2] of 64 µg/mL and an MIC ([3]; NCTC 11994) of 64 µg/mL. For the same molecule, the MIC [4] was greater than 128 µg/mL, the MIC [5] was 64 µg/mL and the MIC [6] was 32 µg/mL.
TTAPCKCWIGLRRCFK [P18] was tested, and the “IC75 values indicating activity classes, P. aeruginosa H1001” value [7] was 1.55, the “IC75 values indicating activity classes, Sal. typhimurium” value [8] was 1.99 and the “IC75 values indicating activity classes, EMRSA-15” value [9] was 3.77. For the same molecule, the “IC75 values indicating activity classes, E. coli” value [10] was 0.36.
Work on QVRWWGRYWRRKWATCR-NH2 [P12] yielded an MIC [1] greater than 128 µg/mL, an MIC ([3]; NCTC 11994) of 128 µg/mL and an MIC [4] greater than 128 µg/mL. The MIC [5] was 256 µg/mL and the MIC [6] was 256 µg/mL.
In the case of `CN[C@H](CC(C)C)C(=O)N[C@H]1C(=O)N[C@@H](CC(N)=O)C(=O)N[C@H]2C(=O)N[C@H]3C(=O)N[C@H](C(=O)N[C@H](C(=O)O)c4cc(O)cc(O)c4-c4cc3ccc4O)[C@H](O)c3ccc(c(Cl)c3)Oc3cc2cc(c3O[C@@H]2O[C@H](CO)[C@@H](O)[C@H](O)[C@H]2O[C@H]2C[C@](C)(N)[C@H](O)[C@H](C)O2)Oc2ccc(cc2Cl)[C@H]1O` [Van, Vancomycin, reference compound], the MIC [2, 18] is reported as 128 µg/mL (≈ 88.3 µM), the MIC [11] is reported as 1 µg/mL (≈ 0.69 µM) and the MIC ([11]; ATCC33591 / MRSA) is reported as 2 µg/mL (≈ 1.38 µM). The MIC ([11]; BAA1717 / MRSA / USA300) was 2 µg/mL (≈ 1.38 µM), the MIC ([11]; MRSA) was 2 µg/mL (≈ 1.38 µM) and the MIC [3, 19] was 64 µg/mL (≈ 44.2 µM). The MIC ([5]; Enterococcus faecalis, JH22) was 64 µg/mL (≈ 44.2 µM), the MIC [6, 20] was 256 µg/mL (≈ 177 µM) and the “Reduction in colony counts” value [12] was less than 2 log.
`CN[C@@H]1C[C@H]2O[C@@](C)([C@@H]1OC)n1c3ccccc3c3c4c(c5c6ccccc6n2c5c31)C(=O)NC4` [Staurosporine, reference compound] was tested, and the “50% lethal concentration (LC50)” value [13] was 0.014 µg/mL.
Molecule `C/C(=C\C(=O)OCCCCCCCCC(=O)O)C[C@@H]1OC[C@H](C[C@@H]2O[C@H]2[C@@H](C)[C@H](C)O)[C@@H](O)[C@H]1O` [Mup, Mupirocin, reference compound] has an MIC ([11]; BAA1717|MRSA|USA300, strain USA300 BAA-1717, MRSA, cation adjusted MHB, 18–24 h) of 0.12 µg/mL (≈ 0.24 µM).
KFVRLKIYCRDKNKGRGISF-NH2 [P15s] showed an MIC [1] of 128 µg/mL, an MIC [2] of 64 µg/mL and an MIC ([3]; NCTC 11994) of 128 µg/mL. It also gave an MIC [4] of 128 µg/mL, an MIC [5] of 128 µg/mL and an MIC [6] of 128 µg/mL.
With `O=C(O)c1cn(C2CC2)c2cc(N3CCNCC3)c(F)cc2c1=O` [Cip, Ciprofloxacin, reference compound] the MIC [2, 18] was 0.06 µg/mL (≈ 0.181 µM), the “Bactericidal activity (reduction in viable count)” value [14] was greater than 4 log10 CFU/ml and the MIC [11] was greater than 256 µg/mL. For the same molecule, the MIC ([11]; ATCC29213, strain ATCC 29213, Sensitive, cation adjusted MHB, 18–24 h) was 0.25 µg/mL (≈ 0.754 µM), the MIC ([11]; MRSA, strain EMRSA-15, resistances MRSA, Cip, cation adjusted MHB, 5 × 10^5 CFU/ml, 18–24 h) was greater than 256 µg/mL and the MIC ([11]; MRSA, strain Q14-0320, cation adjusted MHB, 18–24 h) was 64 µg/mL (≈ 193 µM). The MIC ([11]; MRSA, strain Q14-0325, cation adjusted MHB, 18–24 h) was 0.25 µg/mL (≈ 0.754 µM), the MIC ([11]; MRSA, strain Q14-0352, cation adjusted MHB, 18–24 h) was 0.5 µg/mL (≈ 1.51 µM) and the MIC ([11]; MRSA, strain Q14-0390, cation adjusted MHB, 18–24 h) was 64 µg/mL (≈ 193 µM). It also gave an MIC ([11]; MRSA|NCTC12493, strain NCTC 12493, MRSA, cation adjusted MHB, 18–24 h) of 0.25 µg/mL (≈ 0.754 µM), an MIC [3, 19] of 64 µg/mL (≈ 193 µM) and an MIC ([15]; ATCC27853, strain ATCC 27853, Sensitive) of 0.25 µg/mL (≈ 0.754 µM). The MIC ([15]; strain PA01) was 0.5 µg/mL (≈ 1.51 µM), the MIC ([15]; strain Q12-0535, Sensitive) was 0.06 µg/mL (≈ 0.181 µM) and the MIC ([15]; strain Q12-0581, IMI, MER) was 2 µg/mL (≈ 6.04 µM). It also gave an MIC ([15]; strain Q12-0758, CAZ, IMI, MER) of 2 µg/mL (≈ 6.04 µM), an MIC ([15]; strain Q14-0208, CAZ, IMI, MER) of 4 µg/mL (≈ 12.1 µM) and an MIC ([15]; strain Q14-0890, CAZ, IMI, MER) of 4 µg/mL (≈ 12.1 µM). For the same molecule, the MIC ([4]; Campylobacter jejuni, ATCC33292) was 0.12 µg/mL (≈ 0.362 µM), the MIC ([4]; Campylobacter jejuni, NCTC11161) was 0.5 µg/mL (≈ 1.51 µM) and the MIC ([16]; ATCC700603, strain ATCC 700603, SHV-18) was 0.25 µg/mL (≈ 0.754 µM). The MIC ([16]; NCTC13442, strain NCTC 13442, OXA-48) was 1 µg/mL (≈ 3.02 µM), the MIC ([16]; strain ID not given, Sensitive) was 0.03 µg/mL (≈ 0.0905 µM) and the MIC ([16]; strain Q14-0285, VIM) was 32 µg/mL (≈ 96.6 µM). For the same molecule, the MIC [17] was 0.25 µg/mL (≈ 0.754 µM), the MIC ([5]; Enterococcus faecalis, JH22) was 64 µg/mL (≈ 193 µM) and the MIC [6, 20] was 0.12 µg/mL (≈ 0.362 µM).
